The record followed here is ChEMBL document CHEMBL1134865, “Antimalarial compounds from Parinari capensis” (Bioorg Med Chem Lett, 2002).

Each structure is given as a SMILES string. In brackets after ≈: the same amount, converted by molar mass.

Series [1] is described as follows: Compound was evaluated for its antimalarial activity in vitro on Plasmodium falciparum. Type of series: functional.
A short description of series [2]: Compound was evaluated for toxicity on Human kidney epithelial (Graham cells) at a dose of 100 ug/mL. The format is cell-based.
Series [3] in a line: Compound was evaluated for toxicity on Human kidney epithelial (Graham cells) at a dose of 100 ug/mL; Not toxic. The format is cell-based.

A word on the IC50: it is the concentration needed to halve the response being measured. The low end stands for greater potency in that assay, the high end for weaker potency in that assay. Take `C=C1C(=O)[C@@]23CCC4[C@@]5(C)CCC[C@@]4(OC5=O)[C@@]2(C)CC[C@@H]1C3` (stereo not given in full): the IC50 was 1.57 µg/mL (≈ 4.99 µM) in series [1] and 3.01 µg/mL (≈ 9.57 µM) in series [2].
The like results for `C=C1C(=O)[C@@]23CC[C@@H]4[C@@]5(C)CCC[C@@]4(OC5=O)[C@@]2(C)CC[C@]1(OC)C3` were, in that order, 0.67 µg/mL (≈ 1.95 µM) and 1.13 µg/mL (≈ 3.28 µM).
On the same counts, the results for `C=C1C(=O)[C@@]23CCC4[C@@]5(C)CCC[C@@]4(OC5=O)[C@@]2(C)CC[C@]1(O)C3` (stereo not given in full) are 0.54 µg/mL (≈ 1.63 µM) and 1.73 µg/mL (≈ 5.24 µM).
Take `CCN(CC)CCCC(C)Nc1ccnc2cc(Cl)ccc12` (stereo not given) [CHLOROQUINE]: the figures for the half-inhibitory concentration (IC50) in series [1] and in series [3] were 0.04 µg/mL (≈ 0.125 µM) and “Non-toxic”, respectively.
As for `C=C[C@H]1CN2CC[C@H]1C[C@H]2[C@H](O)c1ccnc2ccc(OC)cc12` [QUININE], the values for the 50% inhibitory concentration (IC50) in series [1] and in series [3] were 0.17 µg/mL (≈ 0.524 µM) and “Non-toxic”, respectively.
